From patent publication US7297797B2, “Pyrrolines” (Bayer CropScience AG, priority 2002, dated 2007) come the findings set out here.

Where two headings read alike, the source gives them in different places.

In data set [1] the test system is larvae of the mustard beetle (Phaedon cochleariae). Put plainly: Phaedon larvae test. Particulars: 168 h, 100 ppm active compound, cabbage leaves (Brassica oleracea) dipped, after 7 d, read-out: Kill rate in % after 7 d. It is filed as in vivo. On the procedure: (§1) Phaedon Larvae Test • Solvent: 7 parts by weight of dimethylformamide • Emulsifier: 2 parts by weight of alkylaryl polyglycol ether To produce a suitable preparation of active compound, 1 part by weight of active compound is mixed with the stated amounts of solvent and emulsifier, and the concentrate is diluted with emulsifier-containing water to the desired concentration. Cabbage leaves (Brassica oleracea) are treated by being dipped into the preparation of active compound of the desired concentration and are populated with larvae of the mustard beetle (Phaedon cochleariae) while the leaves are still moist. After the desired period of time, the kill in % is determined. 100% means that all beetle larvae have been killed; 0% means that none of the beetle larvae have been killed. In this test, for example, the following compounds of the preparation examples show good activity: […]

For data set [2], the system named is greenhouse red spider mite (Tetranychus urticae). Put plainly: Tetranychus test (OP-resistant/dip treatment). Particulars: 168 h, 100 ppm active compound, infested bean plants (Phaseolus vulgaris) dipped, OP-resistant, after 7 d, read-out: Kill rate in % after 7 d. It is filed as in vivo. On the procedure:
Tetranychus Test (OP-Resistant/Dip Treatment)
• Solvent: 7 parts by weight of dimethylformamide • Emulsifier: 2 parts by weight of alkylaryl polyglycol ether
To produce a suitable preparation of active compound, 1 part by weight of active compound is mixed with the stated amounts of solvent and emulsifier, and the concentrate is diluted with emulsifier-containing water to the desired concentration.
Bean plants (Phaseolus vulgaris) which are heavily infested by all stages of the greenhouse red spider mite (Tetranychus urticae) are treated by being dipped into a preparation of active compound of the desired concentration.
After the desired period of time, the activity in % is determined. 100% means that all spider mites have been killed; 0% means that none of the spider mites have been killed.
In this test, for example, the following compounds of the preparation examples show good efficacy: […]

The test system of data set [3] is caterpillars of the cotton bollworm (Heliothis armigera). Put plainly: Heliothis armigera test. It is filed as in vivo. The following applies: Helicoverpa armigera, 168 h; 100 ppm active compound; soybean shoots (Glycine max) dipped; after 7 d; read-out: Kill rate in % after 7 d. On the procedure:
as §1, with “Heliothis armigera” for “Phaedon Larvae”, “Soybean shoots (Glycine max)” for “Cabbage leaves (Brassica oleracea)”, “caterpillars” for “larvae”, “cotton bollworm (Heliothis armigera)” for “mustard beetle (Phaedon cochleariae)”, “caterpillars” for “beetle larvae”

The test system of data set [4] is caterpillars of the army worm (Spodoptera frugiperda). Put plainly: Spodoptera frugiperda test. It is filed as in vivo. The following applies: 168 h, 100 ppm active compound, cabbage leaves (Brassica oleracea) dipped, after 7 d, read-out: Kill rate in % after 7 d. How it is done: as §1, with “Spodoptera frugiperda” for “Phaedon Larvae”, “caterpillars” for “larvae”, “army worm (Spodoptera frugiperda)” for “mustard beetle (Phaedon cochleariae)”, “caterpillars” for “beetle larvae”

A short description of data set [5]: log P determination by HPLC on reversed-phase column (EEC Directive 79/831 Annex V.A8). The class given is physicochemical. How it is done: The log P values given in the preparation examples and tables above are determined in accordance with EEC Directive 79/831 Annex V.A8 by HPLC (High Performance Liquid Chromatography) on a reversed-phase column (C 18). Temperature: 43° C. In the acidic range, determination is carried out at pH 2.3 using the mobile phases 0.1% aqueous phosphoric acid and acetonitrile; linear gradient from 10% acetonitrile to 90% acetonitrile (in the tables marked with a)). In the neutral range, determination is carried out at pH 7.5 using the mobile phases 0.01 molar aqueous phosphate buffer solution and acetonitrile; linear gradient from 10% acetonitrile to 90% acetonitrile (in the tables marked with b)). Calibration is carried out using unbranched alkan-2-ones (of 3 to 16 carbon atoms) with known lopP values (determination of the log P values by the retention times using linear interpolation between two successive alkanones).

In data set [6] the test system is caterpillars of the diamondback moth (Plutella xylostella). Put plainly: Plutella test. The following applies: 100 ppm active compound, cabbage leaves (Brassica oleracea) dipped. The class given is in vivo. On the procedure:
as §1, with “Plutella” for “Phaedon Larvae”, “caterpillars” for “larvae”, “diamondback moth (Plutella xylostella)” for “mustard beetle (Phaedon cochleariae)”, “caterpillars” for “beetle larvae”

[7] abbreviates: reversed-phase C18 HPLC column; acidic range, pH 2.3, 0.1% aqueous phosphoric acid/acetonitrile, 43° C.; marked a) in tables, read-out: log P (pH 2.3).
[8] abbreviates: reversed-phase C18 HPLC column; neutral range, pH 7.5, 0.01 molar aqueous phosphate buffer/acetonitrile, 43° C.; marked b) in tables, read-out: log P (pH 7.5).

Turning to `CCOC(=O)[C@H]1CC(c2c(F)cccc2F)=N[C@H]1c1ccc(-c2ccc(-c3noc(C(F)(F)F)n3)cc2)cc1` (racemic) [Example 8], the pest or weed control at 100 ppm in data set [1] is 100%; in data set [2], 95%; in data set [3], 100%; in data set [4] it was 100%. The chromatographic logP in data set [5] (setting [7]) was 5.18.
As to `CCOC(=O)[C@H]1CC(c2c(F)cccc2F)=N[C@H]1c1ccc(-c2ccc(-c3noc(C(C)(C)C)n3)cc2)cc1` (racemic) [Example 9], the pest or weed control at 100 ppm in data set [1], in data set [3] and in data set [4] was 100% each time. For the same molecule, the chromatographic logP in data set [5] (setting [7]) was 5.29.
As for `CCOC(=O)[C@H]1CC(c2c(F)cccc2F)=N[C@H]1c1ccc(-c2ccc(-c3nc(C(C)(C)C)no3)cc2)cc1` (racemic) [Example 10], the pest or weed control at 100 ppm in data set [1], in data set [3] and in data set [4] was 100% throughout. Moreover, the chromatographic logP in data set [5] (setting [7]) is 5.39.
Consider `Cc1ccccc1C1=NC(c2ccc(Br)cc2)CC1` (stereo not drawn) [2-(4-bromophenyl)-5-(2-methylphenyl)-3,4-dihydro-2H-pyrrole], for which the chromatographic logP in data set [5] (setting [7]) amounted to 1.82; in data set [5] (setting [8]) it was 4.48.
Consider `O=C(/C=C/c1ccc(Br)cc1F)c1c(F)cccc1F` [(2E)-3-(4-bromo-2-fluorophenyl)-1-(2,6-difluoro-phenyl)-2-propen-1-one], for which, in data set [5] (setting [7]), the chromatographic logP is 4.18.
Regarding `CCOc1ccc(-c2ccc(-c3ccc(C4CCC(c5c(F)cccc5F)=N4)cc3)cc2)s1` (stereo not drawn) [Example 1, 5-(2,6-difluorophenyl)-2-[4′-(5-ethoxy-2-thienyl)-1,1′-biphenyl-4-yl]-3,4-dihydro-2H-pyrrole], the pest or weed control at 100 ppm came out at 100% in data set [1], 95% in data set [2], 100% in data set [3] and 100% in data set [4]. Further, the chromatographic logP in data set [5] (setting [7]) was found to be 4.88; in data set [5] (setting [8]), 5.84. Further, the “Kill rate in % after 7 d” value in data set [6] is 100%.
As for `COc1ccc(-c2ccc(-c3ccc(C4CCC(c5c(F)cccc5F)=N4)cc3)cc2)s1` (stereo not drawn) [Example 2, 5-(2,6-difluorophenyl)-2-[4′-(5-methoxy-2-thienyl)-1,1′-biphenyl-4-yl]-3,4-dihydro-2H-pyrrole], the pest or weed control at 100 ppm in data set [1], in data set [3] and in data set [4] was 100% in each case. For the same molecule, in data set [5] (setting [7]), the chromatographic logP is 4.35.
For the molecule `CC(C)Oc1ccc(-c2ccc(-c3ccc(C4CCC(c5c(F)cccc5F)=N4)cc3)cc2)s1` (stereo not drawn) [Example 3, 5-(2,6-difluorophenyl)-2-[4′-(5-isopropoxy-2-thienyl)-1,1′-biphenyl-4-yl]-3,4-dihydro-2H-pyrrole], the pest or weed control at 100 ppm in data set [1], in data set [3] and in data set [4] was 100% in each case. For the same molecule, the chromatographic logP in data set [5] (setting [7]) was determined as 5.2.
Regarding `Cc1ccccc1C1=NC(c2ccc(-c3ccc(-c4noc(C(F)(F)F)n4)cc3)cc2)CC1` (stereo not drawn) [Example 4, 3-{4′-[5-(2-methylphenyl)-3,4-dihydro-2H-pyrrol-2-yl]-1,1′-biphenyl-4-yl}-5-(trifluoromethyl)-1,2,4-oxadiazole], the pest or weed control at 100 ppm in data set [1] was 100%; in data set [2], 95%; in data set [3], 100%; in data set [4], 100%. The chromatographic logP in data set [5] (setting [7]) was 3.32.
For the molecule `Cc1ccccc1C1=NC(c2ccc(-c3ccc(-c4noc(C(C)(C)C)n4)cc3)cc2)CC1` (stereo not drawn) [Example 11], the pest or weed control at 100 ppm in data set [1] was determined as 100%; in data set [2] it was 98%; in data set [3], 100%; in data set [4], 100%. In data set [5] (setting [7]), the chromatographic logP amounted to 3.99.
As for `Cc1ccccc1C1=NC(c2ccc(-c3ccc(-c4nc(C(C)(C)C)no4)cc3)cc2)CC1` (stereo not drawn) [Example 12], the pest or weed control at 100 ppm in data set [1] amounted to 100%; in data set [2] it was 98%; in data set [3], 100%; in data set [4], 100%. The chromatographic logP in data set [5] (setting [7]) was found to be 4.18.
`N#Cc1cnn(-c2ccc(-c3ccc(C4CCC(c5c(F)cccc5F)=N4)cc3)cc2)c1` (stereo not drawn) [Example 18]: the results for the pest or weed control at 100 ppm in data set [1], in data set [2] and in data set [4] were 100%, 90% and 100%, respectively. In addition, the values for the chromatographic logP in data set [5] (setting [7]) and in data set [5] (setting [8]) were 3.02 and 4.03, respectively.
Consider `Cc1nc(-c2ccc(-c3ccc(C4CCC(c5c(F)cccc5F)=N4)cc3)cc2)cs1` (stereo not drawn) [Example 22], for which the pest or weed control at 100 ppm came to 90% in data set [2], 100% in data set [3] and 100% in data set [4]. The chromatographic logP in data set [5] (setting [7]) is 3.35; in data set [5] (setting [8]) it was 4.68. Also, in data set [6], the “Kill rate in % after 7 d” value is 100%.
As to `Cc1ccccc1C1=NC(c2ccc(B3OC(C)(C)C(C)(C)O3)cc2)CC1` (stereo not drawn) [II-1, 5-(2-methylphenyl)-2-[4-(4,4,5,5-tetramethyl-1,3,2-dioxaborolan-2-yl)phenyl]-3,4-dihydro-2H-pyrrole], the chromatographic logP was 2.25 in data set [5] (setting [7]) and 4.98 in data set [5] (setting [8]).
Take `CC1(C)OB(c2ccc(C3CCC(c4c(F)cccc4F)=N3)c(F)c2)OC1(C)C` (stereo not drawn) [II-2, 5-(2,6-difluorophenyl)-2-[2-fluoro-4-(4,4,5,5-tetramethyl-1,3,2-dioxaborolan-2-yl)phenyl]-3,4-dihydro-2H-pyrrole]: in data set [5] (setting [7]), the chromatographic logP was 4.88.
On to `CC(=O)NC(CCC(=O)c1c(F)cccc1F)c1ccc(Br)cc1F` (stereo not drawn) [N-[1-(4-bromo-2-fluorophenyl)-4-(2,6-difluorophenyl)-4-oxobutyl]acetamide], for which the chromatographic logP in data set [5] (setting [7]) turned out to be 2.74.
As for `CC(=O)NC(CCC(=O)c1ccccc1C)c1ccc(Br)cc1` (stereo not drawn) [N-[1-(4-bromophenyl)-4-(2-methylphenyl)-4-oxobutyl]acetamnide], in data set [5] (setting [7]), the chromatographic logP came out at 3.33.
Consider `O=C(c1c(F)cccc1F)C1CC1c1ccc(Br)cc1F` (stereo not drawn) [[2-(4-bromo-2-fluorophenyl)cyclopropyl](2,6-difluorophenyl)methanone], for which the chromatographic logP in data set [5] (setting [7]) came out at 4.31.
